From US7608620B2, “LPAAT-β inhibitors and uses thereof” (Cell Therapeutics, Inc., priority 2000, dated 2009)

Columns and labels:
[1] = system: human breast tumor MCF-7 cells; experiment: Proliferation of MCF-7 cells by CyQUANT analysis; format: cell-based; settings: FIG. 5E
Description: To determine whether administration of LPAAT-β inhibitor would have any effect on cell proliferation in tissue culture, proliferation of human breast tumor MCF-7 cells in microplates were measured by CyQUANT analysis using a green-fluorescent nucleic acid stain optimized to produce a linear detection range from 50 to 50,000 cells in 200 μl volume (Molecular Probes, Eugene, Oreg.) in the presence of various concentrations of a LPAAT-β inhibitor.

[2] = system: NIH/3T3 cells overexpressing the oncogene Ki-ras; experiment: Tumor growth of NIH/3T3 cells overexpressing Ki-ras injected subcutaneously into nude mice; format: in vivo; settings: 10 mg/Kg to 100 mg/Kg intra-peritoneally on day 1, 2, 3 and 4; tumors measured on day 8; FIG. 6B
Description: To determine whether administration of LPAAT-β inhibitor would have any effect on tumor growth in mice, 5×10^5 NIH/3T3 cells overexpressing the oncogene Ki-ras were injected subcutaneously into nude mice. An LPAAT-β inhibitor 6-chloro-N,N′-diphenyl-[1,3,5]triazine-2,4-diamine, at concentrations that range from 10 mg/Kg to 100 mg/Kg of mouse body weight was injected intra-peritoneally on day 1, 2, 3 and 4 after injection of tumor cells. The size of tumors was then measured on day 8.

B16 melanoma cells = experiment: Growth of B16 melanoma cells in syngeneic mice; format: in vivo; settings: FIG. 6C
Lewis Lung tumor cells = experiment: Growth of Lewis Lung tumor cells in syngeneic mice; format: in vivo; settings: FIG. 6D
[3] = system: human DU145 prostate tumor cells; experiment: Human DU145 prostate tumor xenograft in nude mice; format: in vivo; settings: xenograft study, FIG. 6E
[4] = Tolerability in nude and immunocompetent mice; format: in vivo
Description: In summary, endogenous LPAAT-β expression is detected at high levels by both in situ hybridization and immunohistochemistry in particular tumor tissues and often in surrounding stroma and is associated with tumor progression. LPAAT-β overexpression appears to contribute reversibly to transformation and tumorigenesis of immortalized rodent cells and may also contribute to increased transformation of weakly tumorigenic human cell lines. Compounds selected from screening of LPAAT-β inhibitors from different structural families can inhibit proliferation of numerous tumor cell lines in vitro. […] This compound can inhibit the growth of numerous tumor models in mice and may be a tumor-static compound.

LPAAT-β = biological target: T1, LPAAT-β (Homo sapiens, UniProt O15120); experiment: Secondary assay of LPAAT-β activity (radiometric/TLC); format: biochemical; settings: FIG. 9
T1 construct: the full-length human LPAAT-β cDNA was amplified by PCR; made in house; host or cells: Sf9 insect cells (baculovirus, pFastBac HTc); membrane fraction
T1 sequence (O15120 24-278): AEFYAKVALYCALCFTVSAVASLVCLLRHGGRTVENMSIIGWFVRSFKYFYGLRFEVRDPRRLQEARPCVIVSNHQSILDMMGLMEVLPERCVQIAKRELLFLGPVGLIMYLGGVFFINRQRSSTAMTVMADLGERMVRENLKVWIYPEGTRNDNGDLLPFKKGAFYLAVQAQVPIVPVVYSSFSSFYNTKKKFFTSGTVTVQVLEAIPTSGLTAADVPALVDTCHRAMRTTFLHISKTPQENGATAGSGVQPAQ
Description: The radiometric assay was carried out in Sf9 cell membrane overexpressing LPAAT-β resuspended in HEPES-saline buffer, pH 7.5, 1 mg/ml BSA, 1 mM EDTA and 200 μM [^14C]18:1-CoA and 200 μM sn-1-18:1 lysoPA. The samples were incubated 7 min at 37° C. extracted into organic solvent (CHCl3/CH3OH/HCl at 33/66/1), before loading onto TLC plates. A more detailed protocol for the radiometric assay is described below:
Specifically, this LPAAT assay is a modification of the acyltransferase assay published previously (Hollenback and Glomset, Biochemistry 37: 363-376 (1999)).
1. The basic assay, in a total vol of 50 μl, employs a solution of substrates and the protein sample. Total assay volume, as well as the volume of each solution, can be changed to fit an experiment. In addition, other compounds, ex inhibitors and activators, can be included in the assay as well.
2. […]
7. […] To be able to convert pixel volume (determined by the Storm phosphor imager, see step 8b) into cpm, cpm standard curve must be generated on the plate. ^14C-labeled oleate dilutions in chloroform are made for this purpose. Four stocks (50 cpm/μl to 800 cpm/μl) are made and 2 μl of a different concentration are spotted in each corner of the plate (where previously there was no radioactivity). • d. […]
The PA and lysoPA bands are easily detected in this system because of the carrier added in step 5. […]
8. Quantitating activity: • a. […]

LPAAT-α = biological target: T2, LPAAT-α (Homo sapiens, UniProt Q99943); experiment: Secondary assay, effect on LPAAT-α activity; format: biochemical; settings: FIG. 9
T2 sequence (Q99943 27-283): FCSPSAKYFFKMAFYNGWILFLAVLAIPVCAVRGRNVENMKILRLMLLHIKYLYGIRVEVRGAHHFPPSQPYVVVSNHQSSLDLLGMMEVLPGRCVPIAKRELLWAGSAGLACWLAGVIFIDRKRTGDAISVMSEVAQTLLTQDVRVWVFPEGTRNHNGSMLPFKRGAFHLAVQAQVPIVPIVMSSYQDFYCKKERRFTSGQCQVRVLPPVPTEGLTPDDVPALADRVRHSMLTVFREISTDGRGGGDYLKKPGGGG

SMILES: Clc1nc(Nc2ccccc2)nc(Nc2ccccc2)n1 [6-chloro-N,N′-diphenyl-[1,3,5]triazine-2,4-diamine]
- concentration effective in blocking the proliferation of MCF-7 cells [1]: > 20 µM
- volume of the tumors in mice [2]: decreased as the concentration of the LPAAT-β inhibitor increases
- growth of B16 melanoma cells (B16 melanoma cells): decrease the growth
- growth of Lewis Lung tumor cells (Lewis Lung tumor cells): decrease the growth
- growth of human DU145 prostate tumor cells [3]: decrease the growth
- gross pathology ([4]; at least 100 mg/kg/day for 4-5 days): no discernable gross pathology
- tolerated dose ([4]; nude and immunocompetent mice, mouse, in vivo): at least 100 mg/kg/day
- inhibition of LPAAT-β activity (LPAAT-β): concentration-dependent inhibition
- effect on LPAAT-α activity (LPAAT-α): minimal effect
